Laboratory results from patent US9072698B2, “Method for screening anti-cancer compounds inhibiting function of TM4SF5 and anti-cancer composition containing chalcone compounds” (Seoul National University Industry Foundation, priority 2006, dated 2015).
≈ marks a conversion by molar mass, not a printed value.

What was measured:
Assay type in all cases: cell-based
[1] = system: HCT15 (colon adenocarcinoma); test: In vitro cytotoxicity, sulforhodamine B (SRB) method, HCT15; conditions: Homo sapiens; HCT-15, SRB method; read-out: cytotoxicity (ED50) HCT-15
Experimental: (§1) The chalcone derivatives of the present invention were evaluated for in vitro cytotoxicity against human carcinoma cell lines using a sulforhodamine B (SRB) method, which was developed in 1989 by the National Cancer Institute (NCI), USA.
(§2) HCT15 (colon adenocarcinoma; ATCC CCL-225), PC-3 (prostate adenocarcinoma; ATCC CRL-1435), and A-549 (lung carcinoma; ATCC CCL-185) cell lines were used. All of these carcinoma cells were sub-cultured at the Korean Research Institute of Bioscience and Biotechnology (KRIBB), Korea.
(§3) The human carcinoma cell lines were cultured in 10% FCS-containing RPMI 1640 medium (Gibco Cat. No. 31800) in an incubator at 37° C. under 5% CO2, and sub-cultured twice per week.
(§4) Cells were detached from the attached surface using 0.25% Trypsin (Sigma) and 3 mM CDTA (1,2-cyclohexane diamine tetraacetic acid, Sigma) in phosphate buffered saline (PBS, Sigma).
(§5) Compounds to be tested (the chalcone derivatives set forth in Table 1) were dissolved in a small amount of dimethylsulfoxide (DMSO, Sigma), and diluted in culture medium to a desired concentration. The final concentration of DMSO was less than 0.5%. The diluted compounds (final concentration: 30, 10, 3, 1 and 0.3 μg/ml) were sterilized through a 0.22-μm microfilter (Millipore). The cytotoxicity of the compounds to human carcinoma cell lines was assessed using a typical SRB method.

[2] = system: A-549 (lung carcinoma); test: In vitro cytotoxicity, sulforhodamine B (SRB) method, A-549; conditions: Homo sapiens, A549; A-549, SRB method; read-out: cytotoxicity (ED50) A-549
Experimental: as §1, §2, §3, §4, §5

[3] = system: PC-3 (prostate adenocarcinoma); test: In vitro cytotoxicity, sulforhodamine B (SRB) method, PC-3; conditions: Homo sapiens; PC-3, SRB method; read-out: cytotoxicity (ED50) PC-3
Experimental: as §1, §2, §3, §4, §5

Row | SMILES | IC50 [1] [µg/mL] | IC50 [2] [µg/mL] | IC50 [3] [µg/mL]
1 | O=C(/C=C/c1ccc(O)c(O)c1)c1ccc(NS(=O)(=O)c2ccc([N+](=O)[O-])cc2)cc1 [Compound 75, 4′-(p-nitrobenzensulfonylamino)-3,4-dihydroxychalcone] | 8 (≈ 18.2 µM) | 14 (≈ 31.8 µM) | 15 (≈ 34.1 µM)
2 | O=C(/C=C/c1ccc(O)c(O)c1)c1ccc(NS(=O)(=O)c2cccc([N+](=O)[O-])c2)cc1 [Compound 76, 4′-(m-nitrobenzensulfonylamino)-3,4-dihydroxychalcone] | 12 (≈ 27.2 µM) | 11 (≈ 25 µM) | 17 (≈ 38.6 µM)
3 | O=C(/C=C/c1ccc(O)c(O)c1)c1ccc(NS(=O)(=O)c2ccccc2[N+](=O)[O-])cc1 [Compound 77, 4′-(o-nitrobenzensulfonylamino)-3,4-dihydroxychalcone] | 10 (≈ 22.7 µM) | 11 (≈ 25 µM) | 12 (≈ 27.2 µM)
4 | Nc1ccc(S(=O)(=O)Nc2ccc(C(=O)/C=C/c3ccc(O)c(O)c3)cc2)cc1 [Compound 78, 4′-(p-aminobenzensulfonylamino)-3,4-dihydroxychalcone] | 5 (≈ 12.2 µM) | 10 (≈ 24.4 µM) | 7 (≈ 17.1 µM)
5 | Nc1cccc(S(=O)(=O)Nc2ccc(C(=O)/C=C/c3ccc(O)c(O)c3)cc2)c1 [Compound 79, 4′-(m-aminobenzensulfonylamino)-3,4-dihydroxychalcone] | 7 (≈ 17.1 µM) | 8 (≈ 19.5 µM) | 15 (≈ 36.5 µM)
6 | Nc1ccccc1S(=O)(=O)Nc1ccc(C(=O)/C=C/c2ccc(O)c(O)c2)cc1 [Compound 80, 4′-(o-aminobenzensulfonylamino)-3,4-dihydroxychalcone] | 13 (≈ 31.7 µM) | 11 (≈ 26.8 µM) | 23 (≈ 56 µM)
7 | O=C(/C=C/c1ccc(O)c(O)c1)c1ccc(NS(=O)(=O)c2ccccc2)cc1 [Compound 81, 4′-(benzensulfonylamino)-3,4-dihydroxychalcone] | 14 (≈ 35.4 µM) | 28 (≈ 70.8 µM) | 24 (≈ 60.7 µM)
8 | CS(=O)(=O)Nc1ccc(C(=O)/C=C/c2ccc(O)c(O)c2)cc1 [Compound 82, 4′-(methanesulfonylamino)-3,4-dihydroxychalcone] | 12 (≈ 36 µM) | 17 (≈ 51 µM) | 22 (≈ 66 µM)
9 | Cc1ccc(S(=O)(=O)Nc2ccc(C(=O)/C=C/c3ccc(O)cc3Cl)cc2)cc1 [Compound 83, 4′-(p-toluenebenzensulfonylamino)-2-chloro-4-hydroxychalcone] | 15 (≈ 35.1 µM) | 11 (≈ 25.7 µM) | 14 (≈ 32.7 µM)
10 | O=C(/C=C/c1ccc(O)cc1)c1ccc(OS(=O)(=O)c2ccc(O)cc2)cc1 [Compound 84, 4′-(p-hydroxybenzenesulfonate)-4-hydroxychalcone] | 32 (≈ 80.7 µM) | 38 (≈ 95.9 µM) | 22 (≈ 55.5 µM)
11 | O=C(/C=C/c1cccc(O)c1)c1ccc(OS(=O)(=O)c2ccc(O)cc2)cc1 [Compound 85, 4′-(p-hydroxybenzenesulfonate)-3-hydroxychalcone] | 29 (≈ 73.2 µM) | 33 (≈ 83.2 µM) | 28 (≈ 70.6 µM)
12 | O=C(/C=C/c1ccccc1O)c1ccc(OS(=O)(=O)c2ccc(O)cc2)cc1 [Compound 86, 4′-(p-hydroxybenzenesulfonate)-2-hydroxychalcone] | 26 (≈ 65.6 µM) | 30 (≈ 75.7 µM) | 34 (≈ 85.8 µM)
13 | O=C(/C=C/c1ccc(O)cc1)c1ccc(OS(=O)(=O)c2cccc(O)c2)cc1 [Compound 87, 4′-(m-hydroxybenzenesulfonate)-4-hydroxychalcone] | 19 (≈ 47.9 µM) | 20 (≈ 50.5 µM) | 21 (≈ 53 µM)
14 | O=C(/C=C/c1cccc(O)c1)c1ccc(OS(=O)(=O)c2cccc(O)c2)cc1 [Compound 88, 4′-(m-hydroxybenzenesulfonate)-3-hydroxychalcone] | 21 (≈ 53 µM) | 32 (≈ 80.7 µM) | 28 (≈ 70.6 µM)
15 | O=C(/C=C/c1ccccc1O)c1ccc(OS(=O)(=O)c2cccc(O)c2)cc1 [Compound 89, 4′-(m-hydroxybenzenesulfonate)-2-hydroxychalcone] | 24 (≈ 60.5 µM) | 37 (≈ 93.3 µM) | 33 (≈ 83.2 µM)
16 | O=C(/C=C/c1ccc(O)c(O)c1)c1ccc(OS(=O)(=O)c2ccc(O)cc2)cc1 [Compound 90, 4′-(p-hydroxybenzenesulfonate)-3,4-dihydroxychalcone] | 6 (≈ 14.5 µM) | 4 (≈ 9.7 µM) | 8 (≈ 19.4 µM)
17 | O=C(/C=C/c1cccc(O)c1O)c1ccc(OS(=O)(=O)c2ccc(O)cc2)cc1 [Compound 91, 4′-(p-hydroxybenzenesulfonate)-2,3-dihydroxychalcone] | 7 (≈ 17 µM) | 10 (≈ 24.2 µM) | 14 (≈ 33.9 µM)
18 | O=C(/C=C/c1ccc(O)cc1O)c1ccc(OS(=O)(=O)c2ccc(O)cc2)cc1 [Compound 92, 4′-(p-hydroxybenzenesulfonate)-2,4-dihydroxychalcone] | 8 (≈ 19.4 µM) | 9 (≈ 21.8 µM) | 7 (≈ 17 µM)
19 | O=C(/C=C/c1cc(O)ccc1O)c1ccc(OS(=O)(=O)c2ccc(O)cc2)cc1 [Compound 93, 4′-(p-hydroxybenzenesulfonate)-2,5-dihydroxychalcone] | 6 (≈ 14.5 µM) | 8 (≈ 19.4 µM) | 14 (≈ 33.9 µM)
20 | O=C(/C=C/c1ccc(O)c(O)c1)c1ccc(OS(=O)(=O)c2cccc(O)c2)cc1 [Compound 94, 4′-(m-hydroxybenzenesulfonate)-3,4-dihydroxychalcone] | 7 (≈ 17 µM) | 11 (≈ 26.7 µM) | 16 (≈ 38.8 µM)
21 | O=C(/C=C/c1cccc(O)c1O)c1ccc(OS(=O)(=O)c2cccc(O)c2)cc1 [Compound 95, 4′-(m-hydroxybenzenesulfonate)-2,3-dihydroxychalcone] | 9 (≈ 21.8 µM) | 9 (≈ 21.8 µM) | 11 (≈ 26.7 µM)
22 | O=C(/C=C/c1ccc(O)cc1O)c1ccc(OS(=O)(=O)c2cccc(O)c2)cc1 [Compound 96, 4′-(m-hydroxybenzenesulfonate)-2,4-dihydroxychalcone] | 8 (≈ 19.4 µM) | 7 (≈ 17 µM) | 24 (≈ 58.2 µM)
23 | O=C(/C=C/c1cc(O)ccc1O)c1ccc(OS(=O)(=O)c2cccc(O)c2)cc1 [Compound 97, 4′-(m-hydroxybenzenesulfonate)-2,5-dihydroxychalcone] | 11 (≈ 26.7 µM) | 6 (≈ 14.5 µM) | 8 (≈ 19.4 µM)
